Results: ChEMBL document CHEMBL1133736, “Modeling cyclooxygenase inhibition. Implication of active site hydration on the selectivity of ketoprofen analogues” (J Med Chem, 2000)

Tests used:
[1] = target: T1, Prostaglandin G/H synthase 2 (Homo sapiens, UniProt P35354); assay: Concentration required for 50% inhibition against Prostaglandin G/H synthase 2 from human
T1 sequence (P35354 whole entry): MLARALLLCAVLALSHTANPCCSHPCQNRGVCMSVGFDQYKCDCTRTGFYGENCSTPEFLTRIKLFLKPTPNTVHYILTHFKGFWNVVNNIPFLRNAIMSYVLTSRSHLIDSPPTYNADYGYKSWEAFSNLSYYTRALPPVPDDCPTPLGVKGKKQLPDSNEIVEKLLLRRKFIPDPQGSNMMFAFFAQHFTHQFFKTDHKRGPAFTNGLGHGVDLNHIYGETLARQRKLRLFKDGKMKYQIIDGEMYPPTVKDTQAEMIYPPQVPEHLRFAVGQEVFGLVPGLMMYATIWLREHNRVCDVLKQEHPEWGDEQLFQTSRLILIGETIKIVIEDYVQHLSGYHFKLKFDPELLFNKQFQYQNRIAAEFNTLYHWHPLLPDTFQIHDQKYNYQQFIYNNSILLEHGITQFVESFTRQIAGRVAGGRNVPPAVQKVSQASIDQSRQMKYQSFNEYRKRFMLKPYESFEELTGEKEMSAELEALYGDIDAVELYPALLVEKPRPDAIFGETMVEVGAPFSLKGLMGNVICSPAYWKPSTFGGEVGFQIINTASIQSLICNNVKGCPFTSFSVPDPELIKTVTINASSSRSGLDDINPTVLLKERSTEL

[2] = target: Prostaglandin G/H synthase 1 (Homo sapiens, UniProt P23219); assay: Concentration required for 50% inhibition against Prostaglandin G/H synthase 1 from human
Sequence of Prostaglandin G/H synthase 1 (P23219 whole entry): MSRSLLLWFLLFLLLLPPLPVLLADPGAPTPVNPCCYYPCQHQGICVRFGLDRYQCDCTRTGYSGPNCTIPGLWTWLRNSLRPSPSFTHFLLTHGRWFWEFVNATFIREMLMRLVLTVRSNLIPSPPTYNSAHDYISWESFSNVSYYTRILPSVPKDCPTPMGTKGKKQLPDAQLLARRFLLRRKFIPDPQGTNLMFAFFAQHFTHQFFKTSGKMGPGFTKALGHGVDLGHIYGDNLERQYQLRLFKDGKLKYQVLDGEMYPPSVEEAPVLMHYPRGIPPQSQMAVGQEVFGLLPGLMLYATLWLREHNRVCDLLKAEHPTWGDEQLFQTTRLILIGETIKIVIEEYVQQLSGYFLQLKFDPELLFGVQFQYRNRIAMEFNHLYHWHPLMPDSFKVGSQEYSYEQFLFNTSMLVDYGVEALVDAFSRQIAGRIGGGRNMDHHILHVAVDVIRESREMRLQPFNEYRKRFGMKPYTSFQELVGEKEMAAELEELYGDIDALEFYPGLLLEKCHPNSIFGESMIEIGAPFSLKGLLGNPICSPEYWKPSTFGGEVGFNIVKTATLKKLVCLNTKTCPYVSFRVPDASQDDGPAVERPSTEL

Row | Structure (SMILES) | IC50 [1] | IC50 [2]
1 | CC(C(=O)O)c1cc(C(=O)c2ccccc2)ccc1O (stereo not drawn) | 300 nM | 51 nM
2 | COc1ccc(C(=O)c2ccccc2)cc1C(C)C(=O)O (stereo not drawn) | – | 42 nM
